Tested on: hepatocytes
Assay: RNA-seq of hepatocytes treated with Phase III failure compounds
Description: RNA-seq was performed to determine the effects of the compounds on hepatocytes.
Significance was determined by the criteria of FPKM≥0.5, a log 2(fold-change)≥1, and a […].

CCC(CC)[C@H](NC(C)=O)[C@@H]1[C@H](O)[C@@H](C(=O)O)C[C@H]1NC(=N)N.O.O.O [peramivir (trihydrate), peramivir]
RNA-seq results, gene PFKM (PFKM expression in hepatocytes): 0.02
RNA-seq results, gene PGM1 (PGM1 expression in hepatocytes): 0.01
RNA-seq results, gene PHGDH (PHGDH expression in hepatocytes): 0.67
RNA-seq results, gene PHKA1 (PHKA1 expression in hepatocytes): 0.42
RNA-seq results, gene PHKA2 (PHKA2 expression in hepatocytes): −0.03
RNA-seq results, gene PHKB (PHKB expression in hepatocytes): −0.06
RNA-seq results, gene PHYH (PHYH expression in hepatocytes): −0.05
RNA-seq results, gene PIEZO1 (PIEZO1 expression in hepatocytes): 0.08
RNA-seq results, gene PIGA (PIGA expression in hepatocytes): −0.01
RNA-seq results, gene PIGM (PIGM expression in hepatocytes): 0.04
RNA-seq results, gene PKD1 (PKD1 expression in hepatocytes): 0.39
RNA-seq results, gene PKD2 (PKD2 expression in hepatocytes): −0.13
RNA-seq results, gene PKHD1 (PKHD1 expression in hepatocytes): −0.79
RNA-seq results, gene PKLR (PKLR expression in hepatocytes): 0.01
RNA-seq results, gene PLA2G6 (PLA2G6 expression in hepatocytes): 0.31
RNA-seq results, gene PLEKHM1 (PLEKHM1 expression in hepatocytes): 0.52
RNA-seq results, gene PMVK (PMVK expression in hepatocytes): 0.33
RNA-seq results, gene PNP (PNP expression in hepatocytes): 0.05
RNA-seq results, gene PNPLA2 (PNPLA2 expression in hepatocytes): 0.19
significant modulation of expression of disease genes (RNA-seq, q≤0.05, hepatocytes, genes in the value or listed in the block): significantly (q≤0.05) modulate expression of RMRP
RNA-seq results: A1BG expression (gene A1BG, hepatocytes): 0.02
RNA-seq results: AARS2 expression (gene AARS2, hepatocytes): 0.27
RNA-seq results: AASS expression (gene AASS, hepatocytes): −0.12
RNA-seq results: ABAT expression (gene ABAT, hepatocytes): −0.09
RNA-seq results: ABCA1 expression (gene ABCA1, hepatocytes): −0.04
RNA-seq results: ABCB4 expression (gene ABCB4, hepatocytes): 0.01
RNA-seq results: ABCB11 expression (gene ABCB11, hepatocytes): 0.20
RNA-seq results: ABCC2 expression (gene ABCC2, hepatocytes): 0.02
RNA-seq results: ABCC3 expression (gene ABCC3, hepatocytes): 0.32
RNA-seq results: ABCC6 expression (gene ABCC6, hepatocytes): 0.47
RNA-seq results: ABCD1 expression (gene ABCD1, hepatocytes): 0.25
RNA-seq results: ABCD3 expression (gene ABCD3, hepatocytes): −0.28
RNA-seq results: ABCG5 expression (gene ABCG5, hepatocytes): 0.09
RNA-seq results: ABCG8 expression (gene ABCG8, hepatocytes): 0.06
RNA-seq results: ABHD5 expression (gene ABHD5, hepatocytes): −0.22
RNA-seq results: ACACA expression (gene ACACA, hepatocytes): 0.04
RNA-seq results: ACACB expression (gene ACACB, hepatocytes): 0.36
RNA-seq results: ACAD9 expression (gene ACAD9, hepatocytes): 0.00
RNA-seq results: ACADSB expression (gene ACADSB, hepatocytes): −0.29
RNA-seq results: ACADVL expression (gene ACADVL, hepatocytes): 0.30
RNA-seq results: ACOT8 expression (gene ACOT8, hepatocytes): −0.13
RNA-seq results: ACOX2 expression (gene ACOX2, hepatocytes): −0.03
RNA-seq results: ACOX3 expression (gene ACOX3, hepatocytes): −0.01
RNA-seq results: ACSF3 expression (gene ACSF3, hepatocytes): 0.08
RNA-seq results: ACSL1 expression (gene ACSL1, hepatocytes): −0.03
RNA-seq results: ACSL3 expression (gene ACSL3, hepatocytes): −0.34
RNA-seq results: ACTG2 expression (gene ACTG2, hepatocytes): −1.66
RNA-seq results: ACTN1 expression (gene ACTN1, hepatocytes): −0.03
RNA-seq results: ADA expression (gene ADA, hepatocytes): 0.16
RNA-seq results: ADCK3 expression (gene ADCK3, hepatocytes): −0.02
RNA-seq results: ADK expression (gene ADK, hepatocytes): −0.46
RNA-seq results: ADSL expression (gene ADSL, hepatocytes): −0.36
RNA-seq results: AFP expression (gene AFP, hepatocytes): −0.31
RNA-seq results: AGK expression (gene AGK, hepatocytes): −0.24
RNA-seq results: AGL expression (gene AGL, hepatocytes): −0.20
RNA-seq results: AGPAT2 expression (gene AGPAT2, hepatocytes): 0.36
RNA-seq results: AGPS expression (gene AGPS, hepatocytes): −0.31
RNA-seq results: AGT expression (gene AGT, hepatocytes): −0.08
RNA-seq results: AGTR1 expression (gene AGTR1, hepatocytes): −0.40
RNA-seq results: AGXT expression (gene AGXT, hepatocytes): 0.44
RNA-seq results: AHI1 expression (gene AHI1, hepatocytes): −0.18
RNA-seq results: AHSG expression (gene AHSG, hepatocytes): 0.03
RNA-seq results: AK1 expression (gene AK1, hepatocytes): −0.06
RNA-seq results: AKR1C1 expression (gene AKR1C1, hepatocytes): −0.24
RNA-seq results: AKR1C2 expression (gene AKR1C2, hepatocytes): 0.07
RNA-seq results: AKR1C4 expression (gene AKR1C4, hepatocytes): −0.41
RNA-seq results: AKR1D1 expression (gene AKR1D1, hepatocytes): −0.04
RNA-seq results: ALAD expression (gene ALAD, hepatocytes): 0.07
RNA-seq results: ALAS1 expression (gene ALAS1, hepatocytes): −0.13
RNA-seq results: ALDH1B1 expression (gene ALDH1B1, hepatocytes): 0.10
RNA-seq results: ALDH2 expression (gene ALDH2, hepatocytes): 0.07
RNA-seq results: ALDH6A1 expression (gene ALDH6A1, hepatocytes): −0.48
RNA-seq results: ALDOA expression (gene ALDOA, hepatocytes): 0.01
RNA-seq results: ALDOB expression (gene ALDOB, hepatocytes): −0.08
RNA-seq results: ALG12 expression (gene ALG12, hepatocytes): 0.02
RNA-seq results: ALMS1 expression (gene ALMS1, hepatocytes): −0.05
RNA-seq results: ALPL expression (gene ALPL, hepatocytes): −0.08
RNA-seq results: AMACR expression (gene AMACR, hepatocytes): −0.17
RNA-seq results: AMPD3 expression (gene AMPD3, hepatocytes): 0.13
RNA-seq results: AMT expression (gene AMT, hepatocytes): 0.24
RNA-seq results: ANGPTL3 expression (gene ANGPTL3, hepatocytes): −0.42
RNA-seq results: ANKS4B expression (gene ANKS4B, hepatocytes): −0.06
RNA-seq results: ANKS6 expression (gene ANKS6, hepatocytes): 0.15
RNA-seq results: ANPEP expression (gene ANPEP, hepatocytes): 0.07
RNA-seq results: AOC2 expression (gene AOC2, hepatocytes): 0.42
RNA-seq results: AP3B1 expression (gene AP3B1, hepatocytes): −0.40
RNA-seq results: APC expression (gene APC, hepatocytes): −0.20
RNA-seq results: APOA1 expression (gene APOA1, hepatocytes): −0.02
RNA-seq results: APOA2 expression (gene APOA2, hepatocytes): −0.52
RNA-seq results: APOA5 expression (gene APOA5, hepatocytes): 0.13
RNA-seq results: APOB expression (gene APOB, hepatocytes): −0.10
RNA-seq results: APOC2 expression (gene APOC2, hepatocytes): −0.17
RNA-seq results: APOC3 expression (gene APOC3, hepatocytes): −0.06
RNA-seq results: APOE expression (gene APOE, hepatocytes): 0.04
RNA-seq results: APRT expression (gene APRT, hepatocytes): 0.23
RNA-seq results: AQP7 expression (gene AQP7, hepatocytes): −0.41
RNA-seq results: AQP9 expression (gene AQP9, hepatocytes): −0.29
RNA-seq results: ARG1 expression (gene ARG1, hepatocytes): 0.02
RNA-seq results: ARG2 expression (gene ARG2, hepatocytes): −0.34
RNA-seq results: ARL13B expression (gene ARL13B, hepatocytes): −0.24
RNA-seq results: ARSA expression (gene ARSA, hepatocytes): 0.49
RNA-seq results: ARSB expression (gene ARSB, hepatocytes): 0.03
RNA-seq results: ASL expression (gene ASL, hepatocytes): 0.25
RNA-seq results: ASNS expression (gene ASNS, hepatocytes): −0.22
RNA-seq results: ASPA expression (gene ASPA, hepatocytes): −0.10
RNA-seq results: ASXL1 expression (gene ASXL1, hepatocytes): 0.09
RNA-seq results: ATG7 expression (gene ATG7, hepatocytes): −0.05
RNA-seq results: ATIC expression (gene ATIC, hepatocytes): −0.26
RNA-seq results: ATM expression (gene ATM, hepatocytes): 0.16
RNA-seq results: ATP7A expression (gene ATP7A, hepatocytes): −0.27
RNA-seq results: ATP7B expression (gene ATP7B, hepatocytes): 0.00
RNA-seq results: ATP8B1 expression (gene ATP8B1, hepatocytes): −0.26
RNA-seq results: B2M expression (gene B2M, hepatocytes): −0.52
RNA-seq results: B9D2 expression (gene B9D2, hepatocytes): 0.35
RNA-seq results: BAAT expression (gene BAAT, hepatocytes): −0.23
RNA-seq results: BBOX1 expression (gene BBOX1, hepatocytes): −0.71
RNA-seq results: BBS10 expression (gene BBS10, hepatocytes): −0.36
RNA-seq results: BCHE expression (gene BCHE, hepatocytes): −0.32
RNA-seq results: BCKDHB expression (gene BCKDHB, hepatocytes): −0.10
